For this assay, the target named is T1, BRAF V600E (Homo sapiens, UniProt P15056, V600E).
T1 construct: endogenous C-terminal HiBiT fusion tag on BRAF V600E allele; endogenous in cells; host or cells: A375 clone 1F10 (CRISPR-Cas9 knock-in of the HiBiT tag; parental A375 from ATCC)
Kind of assay: BRAF HiBiT degradation assay, C-terminal HiBiT-tagged BRAF V600E A375 cells (clone 1F10), Nano-Glo HiBiT Lytic assay. In kind it is cell-based. As to conditions: for Dmax: A-375. The text has this:
An A375 cell line expressing a homozygous V600E mutation was purchased from ATCC (Manassas, VA, USA). An A375 clone 1F10 cell line with an endogenous C-terminal HiBiT fusion tag on BRAF V600E allele was generated internally using CRISPR-Cas9 technology and cultured in DMEM, high glucose supplemented with 10% FBS and 1× GlutaMAX. A HCT-116 BRAF−/− cell line overexpressing the C-terminal HiBiT-tagged G466V, G469A, and D594G mutants were generated by lentiviral transduction, externally at Biosettia Inc (San Diego, CA, USA). The stably transfected cells were cultured in RPMI media supplemented with 10% FBS, 1× GlutaMAX, and 0.25 μg/ml puromycin. DMEM medium, RPMI 1640 medium, GlutaMAX, fetal bovine serum (FBS), and puromycin were purchased from Gibco (Grand Island, NY, USA). HCT-116 BRAF−/− cells were purchased from Horizon Discovery (Waterbeach, UK).
The C-terminal HiBiT tagged BRAF A375 cells (monoclonal cell line, cell clone 1F10) were seeded at a density of 10,000 cells/well in 30 μL media (DMEM, high glucose supplemented with 10% FBS and 1× GlutaMAX) in white opaque 384-well plates (Corning #3570) from column 1 to column 23. The wildtype A375 cells were seeded in column 24 at the same cell density in 30 μL media. Cells were incubated at 37° C. with 5% CO2 for 24 h.
Intermediate compound dilution series (5-point, ranging from 5 mM to 0.5 μM, 10-fold dilutions in DMSO) were prepared in a source plate (Beckman Coulter cat. no. 001-16128). Final compound dilution series (11-point, ranging from 1 μM to 0.01 nM, half-log dilutions in DMSO) were stamped into the assay plate (Corning #3570, column 1-11 and 12-22) using the Echo Acoustic Liquid Handler (Beckman Coulter). Each compound was plated in duplicate, and the total volume of compound DMSO solution was 60 nL/well (0.2% final DMSO concentration). DMSO was included in wells A23-L23 and A24-L24. The DMSO-treated HiBiT-tagged samples served as Negative Control (NC) and the DMSO-treated wildtype samples served as Background Control (BC) for the HiBiT assay.
HiBiT signal was measured by a Nano-Glo HiBiT Lytic assay (Promega cat. no. N3050). HiBiT lytic detection reagent (Nano-Glo HiBiT Lytic Buffer with 1:50 Nano-Glo HiBiT Lytic Substrate and 1:100 LgBiT Protein, 40 μL) was added using Bravo. The mixture was incubated at room temperature, in the dark, and with gentle shaking for 10 min. Luminesce units (LU) were read on an EnVision plate reader 2105 (Perkin Elmer).
Percent protein remaining and viability remaining per sample were calculated as follows: […]
% Protein remaining values were plotted as a function of compound concentration. XC50 (DC50) values were determined by fitting curves using the following equation:
For the HiBiT degradation assay, the key parameters reported include: • The dose of compound that produces 50% degradation (DC50 at 50%): • DC50 at 50%: the Fitted X value (Conc.) at Y=50 (response) • Observed Dmax (Obs. Dmax) is the percentage protein degraded at maximal compound effect relative to DMSO-treated control: […]
For orientation: With HiBiT, luminescence reflects the tagged protein that the partner subunit can reach.

The mark [1] stands for this setting: A375 (BRAF V600E, Class 1), DC50 at 50% degradation.
[2] abbreviates: A375 (BRAF V600E, Class 1), observed Dmax, % protein degraded relative to DMSO control.
[3] abbreviates: A375 (BRAF V600E), DC50 at 50%: fitted conc. at Y=50.
The mark [4] stands for this setting: A375 (BRAF V600E), percentage protein degraded at maximal compound effect relative to DMSO.

T1 sequence (P15056 whole entry V600E, the tested form may be a part): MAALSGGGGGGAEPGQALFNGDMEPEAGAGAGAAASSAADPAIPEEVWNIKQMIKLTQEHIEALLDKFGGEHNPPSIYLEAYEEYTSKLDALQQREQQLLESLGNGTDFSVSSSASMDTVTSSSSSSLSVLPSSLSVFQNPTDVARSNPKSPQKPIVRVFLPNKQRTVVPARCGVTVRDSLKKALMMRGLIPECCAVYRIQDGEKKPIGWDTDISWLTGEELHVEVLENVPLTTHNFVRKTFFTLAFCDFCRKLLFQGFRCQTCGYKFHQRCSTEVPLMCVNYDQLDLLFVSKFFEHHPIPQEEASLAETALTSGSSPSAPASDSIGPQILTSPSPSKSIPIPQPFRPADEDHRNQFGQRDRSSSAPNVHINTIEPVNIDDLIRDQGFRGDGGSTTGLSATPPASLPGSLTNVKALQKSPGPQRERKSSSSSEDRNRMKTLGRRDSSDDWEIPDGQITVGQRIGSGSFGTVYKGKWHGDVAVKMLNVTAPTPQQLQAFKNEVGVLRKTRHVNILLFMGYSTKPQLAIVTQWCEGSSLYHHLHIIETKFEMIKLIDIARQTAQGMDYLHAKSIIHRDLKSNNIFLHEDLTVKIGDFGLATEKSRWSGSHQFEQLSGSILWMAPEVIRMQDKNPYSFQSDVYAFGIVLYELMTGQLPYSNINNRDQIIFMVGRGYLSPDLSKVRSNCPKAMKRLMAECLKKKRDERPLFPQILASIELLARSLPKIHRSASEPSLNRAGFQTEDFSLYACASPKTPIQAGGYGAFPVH

Under setting [1], `CCCS(=O)(=O)Nc1cccc(-c2nc(C3(C)CCN(C(=O)CC4CCN(C5CCN(c6ccc7c(c6)C(=O)N(C6CCC(=O)NC6=O)C7=O)CC5)CC4)CC3)sc2-c2ccnc(N)n2)c1F` (racemic) [Compound 249, Rac-N-{3-[5-(2-aminopyrimidin-4-yl)-2-{1-[2-(1′-{2-[(3R)-2,6-dioxopiperidin-3-yl]-1,3-dioxo-2,3-dihydro-1H-isoindol-5-yl}-[1,4′-bipiperidin]-4-yl)acetyl]-4-methylpiperidin-4-yl}-1,3-thiazol-4-yl]-2-fluorophenyl}propane-1-sulfonamide] had a half-maximal degradation concentration (DC50) of 50 to 500 nM. The Dmax under setting [2] is 30 to 70%.
As for `CCCS(=O)(=O)Nc1cccc(-c2nc(C(C)(C)C)sc2-c2ccnc(Nc3ccc(C4CCN(C(=O)C5CCN(c6ccc7c(c6)C(=O)N(C6CCC(=O)NC6=O)C7=O)CC5)CC4)cc3)n2)c1F` (racemic) [Compound 155, Rac-N-(3-{2-tert-butyl-5-[2-({4-[1-(1-{2-[(3R)-2,6-dioxopiperidin-3-yl]-1,3-dioxo-2,3-dihydro-1H-isoindol-5-yl}piperidine-4-carbonyl)piperidin-4-yl]phenyl}amino)pyrimidin-4-yl]-1,3-thiazol-4-yl}-2-fluorophenyl)propane-1-sulfonamide], the DC50 under setting [3] lay within 50 to 500 nM. Under setting [4], this compound yielded a Dmax of 30 to 70%.
`CCCS(=O)(=O)Nc1cccc(-c2nc(C3CCN(Cc4ccc(C(=O)N[C@@H]5CCC(=O)NC5=O)cc4)CC3)sc2-c2ccnc(N)n2)c1F` [Compound 255, 4-({4-[5-(2-aminopyrimidin-4-yl)-4-[2-fluoro-3-(propane-1-sulfonamido)phenyl]-1,3-thiazol-2-yl]piperidin-1-yl}methyl)-N-[(3R)-2,6-dioxopiperidin-3-yl]benzamide]: the DC50 under setting [1] is above 500 nM. The compound also gave a Dmax under setting [2] below 30%.
Consider `CCCS(=O)(=O)Nc1cccc(-c2nc(C(C)(C)C)sc2-c2ccnc(Nc3cnn(C4CCN(C(=O)C5CCN(c6ccc(C(=O)NC7CCC(=O)NC7=O)nc6)CC5)CC4)c3)n2)c1F` (racemic) [Compound 107, Rac-5-[4-(4-{4-[(4-{2-tert-butyl-4-[2-fluoro-3-(propane-1-sulfonamido)phenyl]-1,3-thiazol-5-yl}pyrimidin-2-yl)amino]-1H-pyrazol-1-yl}piperidine-1-carbonyl)piperidin-1-yl]-N-[(3R)-2,6-dioxopiperidin-3-yl]pyridine-2-carboxamide], for which, under setting [3], the DC50 was 10 to 50 nM. Also, the maximal degradation (Dmax) under setting [4] lay within 30 to 70%.
On the same counts, the results for `CCCS(=O)(=O)Nc1cccc(-c2nc(C(C)(C)C)sc2-c2ccnc(Nc3ccc(C4CCN(C(=O)C[C@@H]5CCN(c6ccc7c(c6)n(C)c(=O)n7C6CCC(=O)NC6=O)C5)CC4)cc3)n2)c1F` (mixture of isomers) [Compound 162, N-{3-[2-tert-butyl-5-(2-{[4-(1-{2-[(3S)-1-{1-[(3RS)-2,6-dioxopiperidin-3-yl]-3-methyl-2-oxo-2,3-dihydro-1H-1,3-benzodiazol-5-yl}pyrrolidin-3-yl]acetyl}piperidin-4-yl)phenyl]amino}pyrimidin-4-yl)-1,3-thiazol-4-yl]-2-fluorophenyl}propane-1-sulfonamide] are 10 to 50 nM and 30 to 70%.
On the same counts, the results for `CCCS(=O)(=O)Nc1cccc(-c2nc(C3CCN(CC4CCN(C(=O)C5CCN(c6ccc(C7CCC(=O)NC7=O)cn6)CC5)CC4)CC3)sc2-c2ccnc(N)n2)c1F` (racemic) [Compound 213, Rac-N-{3-[5-(2-aminopyrimidin-4-yl)-2-(1-{[1-(1-{5-[(3R)-2,6-dioxopiperidin-3-yl]pyridin-2-yl}piperidine-4-carbonyl)piperidin-4-yl]methyl}piperidin-4-yl)-1,3-thiazol-4-yl]-2-fluorophenyl}propane-1-sulfonamide] are below 10 nM and above 70%.

Broadly, the DC50 is the concentration at which degradation of the target reaches its halfway point. The Dmax is the greatest extent of degradation seen. A higher Dmax goes with deep degradation.

These data come from patent US20260317324A1, “BIFUNCTIONAL COMPOUNDS FOR DEGRADING BRAF VIA UBIQUITIN PROTEOSOME PATHWAY” (Nurix Therapeutics, Inc., priority 2023, published 2026).
